Tests used:
TANK-2 enzyme = target: T1, TANK-2 enzyme (Homo sapiens, UniProt Q9H2K2); experiment: In vitro Scintillation Proximity Assay (SPA) for TANK-2 inhibitory activity; assay type: biochemical; settings: in vitro SPA assay TANK-2 pIC50
T1 construct: made in house
T1 sequence (Q9H2K2 1-1166): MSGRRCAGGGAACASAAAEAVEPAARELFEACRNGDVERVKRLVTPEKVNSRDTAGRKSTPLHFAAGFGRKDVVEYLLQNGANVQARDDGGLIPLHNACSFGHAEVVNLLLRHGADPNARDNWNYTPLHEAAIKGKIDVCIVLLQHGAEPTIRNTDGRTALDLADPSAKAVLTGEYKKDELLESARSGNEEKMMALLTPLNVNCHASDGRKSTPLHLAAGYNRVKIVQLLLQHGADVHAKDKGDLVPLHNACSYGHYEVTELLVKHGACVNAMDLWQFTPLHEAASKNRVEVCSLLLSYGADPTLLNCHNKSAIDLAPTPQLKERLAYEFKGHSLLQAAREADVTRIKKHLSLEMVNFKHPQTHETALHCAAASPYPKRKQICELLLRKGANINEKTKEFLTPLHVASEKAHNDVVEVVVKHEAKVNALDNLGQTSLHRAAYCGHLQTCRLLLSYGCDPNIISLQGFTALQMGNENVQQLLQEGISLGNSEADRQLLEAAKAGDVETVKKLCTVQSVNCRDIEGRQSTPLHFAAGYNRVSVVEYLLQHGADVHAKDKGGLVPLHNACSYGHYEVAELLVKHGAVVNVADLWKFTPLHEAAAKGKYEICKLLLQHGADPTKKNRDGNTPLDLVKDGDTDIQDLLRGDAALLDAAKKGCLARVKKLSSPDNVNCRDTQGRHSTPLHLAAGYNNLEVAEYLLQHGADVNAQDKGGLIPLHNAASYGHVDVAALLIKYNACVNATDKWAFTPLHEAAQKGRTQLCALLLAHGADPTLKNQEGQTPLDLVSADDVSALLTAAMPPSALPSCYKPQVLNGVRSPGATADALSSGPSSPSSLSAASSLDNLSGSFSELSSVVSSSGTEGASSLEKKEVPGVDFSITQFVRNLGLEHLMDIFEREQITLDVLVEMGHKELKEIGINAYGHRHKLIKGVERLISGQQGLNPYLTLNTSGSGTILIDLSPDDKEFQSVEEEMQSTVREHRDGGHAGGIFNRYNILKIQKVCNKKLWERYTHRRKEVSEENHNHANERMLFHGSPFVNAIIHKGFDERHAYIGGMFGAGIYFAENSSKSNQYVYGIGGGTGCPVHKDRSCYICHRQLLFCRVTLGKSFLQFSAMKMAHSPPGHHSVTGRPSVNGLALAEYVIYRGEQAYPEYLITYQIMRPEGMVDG
Method: Compounds of the present invention were tested in an in vitro assay based on SPA technology with Ni Flash plates (96 or 384 well). In principle, the assay relies upon SPA technology for the detection of auto-poly(ADP-ribosyl)ation of TANK-2 protein using [^3H]-nicotinamide adenine dinucleotide ([^3H]-NAD^+) as ADP-ribosyl donor.
A stock solution of 100 nM [3H]-NAD^+/NAD (0.1 mCi/ml, supplier: Perkin Elmer) and 0.25 μM NAD (Sigma) was made in assay buffer (60 mM Tris/HCl, pH 7.4; 0.9 mM DTT; 6 mM MgCl2). The TANK-2 enzyme was produced as described in EP1238063. 60 μl of assay buffer, together with 1 μl of compound in DMSO, 20 μl of [^3H]-NAD^+/NAD and 20 μl of TANK-2 enzyme (final concentration 8 μg/ml) was added per well into a 96-well Ni-coated flash plate (Perkin Elmer). After incubation of the mixture for 120 min. at room temperature, the reaction was terminated by adding 60 μl of stopsolution (42.6 mg NAD in 6 ml H2O). The plates were covered with a plate sealer and placed in a TopCountNXT™ (Packard) for scintillation counting. Values were expressed as counts per minute (cpm). For each experiment, controls (containing TANK-2 enzyme and DMSO without compound), a blank incubation (containing DMSO but no TANK-2 enzyme or compound) and samples (containing TANK-2 enzyme and compound dissolved in DMSO) were run in parallel. All compounds tested were dissolved and eventually further diluted in DMSO. In first instance, compounds were tested at a concentration of 10^−5M. […] In each test, the blank value was subtracted from both the control and the sample values. The control sample represented maximal TANK-2 enzyme activity. For each sample, the amount of cpm was expressed as a percentage of the mean cpm value of the controls. When appropriate, IC50-values (concentration of the drug, needed to reduce the TANK-2 enzyme activity to 50% of the control) were computed using linear interpolation between the experimental points just above and below the 50% level. Herein the effects of test compounds are expressed as pIC50 (the negative log value of the IC50-value). As reference compounds, 3-aminobenzamide and 4-amino-1,8-naphtalimide were included to validate the SPA assay. Herein the assay was described using 96-well plates. In the assay using 384-well plates the same final concentrations were used and volumes were adapted.

Human PARP-1 enzyme = target: T2, Human PARP-1 enzyme (Homo sapiens, UniProt P09874); experiment: In vitro Scintillation Proximity Assay (SPA) for PARP-1 inhibitory activity; assay type: biochemical; settings: read-out: in vitro SPA assay PARP-1 pIC50 (converted)
T2 construct: purchased Trevigen
T2 sequence (P09874 whole entry): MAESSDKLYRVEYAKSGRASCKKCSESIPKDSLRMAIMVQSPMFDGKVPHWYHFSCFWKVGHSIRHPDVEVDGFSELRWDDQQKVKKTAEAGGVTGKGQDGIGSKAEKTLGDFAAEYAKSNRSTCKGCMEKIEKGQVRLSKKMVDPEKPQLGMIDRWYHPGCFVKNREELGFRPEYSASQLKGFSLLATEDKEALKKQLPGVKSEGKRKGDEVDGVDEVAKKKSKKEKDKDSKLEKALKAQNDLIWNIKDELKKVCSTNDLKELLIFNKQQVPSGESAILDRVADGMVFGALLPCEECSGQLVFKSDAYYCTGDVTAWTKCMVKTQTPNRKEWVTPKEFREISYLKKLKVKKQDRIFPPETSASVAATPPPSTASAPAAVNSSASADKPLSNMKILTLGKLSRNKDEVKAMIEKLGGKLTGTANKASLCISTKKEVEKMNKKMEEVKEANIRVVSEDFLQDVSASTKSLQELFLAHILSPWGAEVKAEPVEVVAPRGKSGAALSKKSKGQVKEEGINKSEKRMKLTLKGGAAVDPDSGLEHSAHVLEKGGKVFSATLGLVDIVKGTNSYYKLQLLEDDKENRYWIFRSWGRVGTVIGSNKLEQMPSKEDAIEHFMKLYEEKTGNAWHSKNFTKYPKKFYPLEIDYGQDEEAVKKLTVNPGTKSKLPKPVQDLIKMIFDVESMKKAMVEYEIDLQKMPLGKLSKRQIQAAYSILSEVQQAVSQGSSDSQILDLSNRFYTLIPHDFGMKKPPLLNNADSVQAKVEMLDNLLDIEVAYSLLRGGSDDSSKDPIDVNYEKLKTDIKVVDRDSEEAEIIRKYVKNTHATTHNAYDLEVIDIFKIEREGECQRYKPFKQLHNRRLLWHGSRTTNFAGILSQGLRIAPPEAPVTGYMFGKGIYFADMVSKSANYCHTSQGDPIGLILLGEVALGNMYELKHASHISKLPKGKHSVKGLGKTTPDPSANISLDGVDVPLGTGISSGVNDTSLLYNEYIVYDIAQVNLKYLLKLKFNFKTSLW
Method: Compounds of the present invention were tested in an in vitro assay based on SPA technology (proprietary to GE healthcare).
In principle, the assay relies upon the well established SPA technology for the detection of poly(ADP-ribosyl)ation of biotinylated target proteins, i.e histones. This ribosylation is induced using nicked DNA activated PARP-1 enzyme and [^3H]-nicotinamide adenine dinucleotide ([^3H]-NAD^+) as ADP-ribosyl donor.
Histones (type II-A, supplier: Sigma) were biotinylated using the biotinylation kit of Amersham and stored aliquoted at −20° C. A stock solution of 100 mg/ml SPA poly(vinyl toluene) (PVT) beads (supplier: Amersham) was made in PBS. A stock solution of 61.6 nM [^3H]-NAD^+ was made by adding [^3H]-NAD^+ (0.1 mCi/ml, supplier: Perkin Elmer) to incubation buffer (50 mM Tris/HCl, pH 8; 0.2 mM DTT; 4 mM MgCl2). A solution of 4 mM NAD^+ (supplier: Sigma) was made. Human PARP-1 enzyme was obtained from Trevigen. Biotinylated histones and PVT-SPA beads were mixed and pre-incubated for 30 min. at room temperature. PARP-1 enzyme (concentration was lot dependent) was mixed with the nicked DNA and the mixture was pre-incubated for 30 min. at 4° C. Equal parts of this histones/PVT-SPA beads solution and PARP-1 enzyme/DNA solution were mixed and 75 μl of this mixture together with 1 μl of compound in DMSO and 25 μl of [^3H]-NAD^+ was added per well into a 96-well microtiterplate. The final concentrations in the incubation mixture were 2 μg/ml for the biotinylated histones, 2 mg/ml for the PVT-SPA beads, 0.25 μg/ml for the nicked DNA and between 0.1-0.2 μg/ml for the PARP-1 enzyme. After incubation of the mixture for 20 min. at room temperature, the reaction was terminated by adding 100 μl of 4 mM NAD^+ in water (final concentration 2 mM) and plates were mixed. The beads were sedimented by centrifugation (10 min, 800 rpm). and plates transferred to a TopCountNXT™ (Packard) for scintillation counting, values were expressed as counts per minute (cpm). For each experiment, controls (containing PARP-1 enzyme and DMSO without compound), a blank incubation (containing DMSO but no PARP-1 enzyme, no DNA or compound) and samples (containing PARP-1 enzyme, DNA and compound dissolved in DMSO) were run in parallel. All compounds tested were dissolved and eventually further diluted in DMSO. A dose-response curve was made wherein the compounds were tested at concentrations between 10^−5M and 3×10^−9M. In each test, the blank value was subtracted from both the control and the sample values. The control sample represented maximal PARP-1 enzyme activity. For each sample, the amount of cpm was expressed as a percentage of the mean cpm value of the controls. When appropriate, IC50-values (concentration of the drug, needed to reduce the PARP-1 enzyme activity to 50% of the control) were computed using linear interpolation between the experimental points just above and below the 50% level. Herein the effects of test compounds are expressed as pIC50 (the negative log value of the IC50-value). As a reference compound, 4-amino-1,8-naphthalimide was included to validate the SPA assay.

IC50 (TANK-2 enzyme): 79.4 nM
IC50 (Human PARP-1 enzyme): 50.1 nM
melting point: 179 °C
Compound: CCc1cc2ccc(C(C)(C#N)Cc3nc(C#N)cc(OC)n3)cc2[nH]c1=O (single isomer, unassigned) [Compound 203]
